# “And” between values parts separate entries of the source, which are not always exact repeats. Identical values can stand only once.
# B1: FtsA R286W (protein)
# chain: MIKATDRKLVVGLEIGTAKVAALVGEVLPDGMVNIIGVGSCPSRGMDKGGVNDLESVVKCVQRAIDQAELMADCQISSVYLALSGKHISCQNEIGMVPISEEEVTQEDVENVVHTAKSVRVRDEHRVLHVIPQEYAIDYQEGIKNPVGLSGVRMQAKVHLITCHNDMAKNIVKAVERCGLKVDQLIFAGLASSYSVLTEDERELGVCVVDIGGGTMDIAVYTGGALRHTKVIPYAGNVVTSDIAYAFGTPPSDAEAIKVRHGCALGSIVGKDESVEVPSVGGRPPWSLQRQTLAEVIEPRYTELLNLVNEEILQLQEKLRQQGVKHHLAAGIVLTGGAAQIEGLAACAQRVFHTQVRIGAPLNITGLTDYAQEPYYSTAVGLLHYGKESHLNGEAEVEKRVTASVGSWIKRLNSWLRKEF
# modifications: Cy3 or Cy5 at the N-terminus in the labelled form (labelled CLEPTGG peptide conjugated to the 5xGly tag by sortagging); unlabelled protein also used; left off: TwinStrep-SUMO, N-terminal, cleaved | 5x
# Key:
# [1] = tested on: FtsZ filaments; experiment: Slope of linear regression FtsZ vs FtsA intensity (packing of FtsA below FtsZ filaments); format: biochemical, E. coli; settings: for Slope of linear regression: Fig. S2h
# Excerpt: While fluorescence microscopy cannot resolve molecular assemblies of these small dimensions, a higher packing density of FtsA R286W below FtsZ filaments could explain the enhanced colocalization with FtsZ. To test this hypothesis, we analysed the pixel-by-pixel relationship between the fluorescence intensities of FtsZ and FtsA in dual-colour fluorescence time-lapse movies. […] At low FtsA concentrations, we found the slopes for both proteins to be similar.
# [2] = Single-molecule diffusion coefficient of FtsA on the membrane; settings: for Diffusion Coefficient: single-particle tracking, n = 3; for Single Molecule Diffusion Constant, mean: mean of Exp. 1-3, n = 3, Fig. 3b
# Procedure: First, we studied the behaviour of single FtsA proteins on the membrane surface.
# After 5 min of incubation, single molecule time lapses were acquired every 125, 250, 500, and 1000 and 2000 ms, with an exposure time of 50 ms. Subsequently, the bulk concentration of FtsA was increased to 0.2/0.4/0.8 µM and time lapses were repeated as described above.
# Single molecules of FtsA or FtsZ were tracked using the TrackMate plugin from ImageJ[43]. To obtain the residence time of FtsZ and FtsA, we performed a residence time analysis as described before[40],[47]. Shortly, single molecules were imaged at different acquisition rates (0.1–2 s) and the lifetime of the molecules was extracted from each data set. To account for photobleaching effect, the obtained lifetimes were plotted against the acquisition rate. […] Furthermore, we extracted the diffusion coefficient of FtsA single molecules at increasing concentrations. For this, we filtered the obtained data, by considering only trajectories which are present on the membrane for more than 0.4 s. […] Subsequently, the diffusion coefficient of FtsA molecules was estimated by fitting an MSD curve to each individual trajectory.
molecule,measurement,setting,value
"FtsA WT: wild-type E. coli actin-homologue FtsA, membrane anchor of FtsZ",Slope of linear regression FtsZ vs FtsA,"[1]; 0.1 µM FtsA, mean",0.64
same,"Slope of linear regression, mean of single experiment","[1]; 0.1µM, replicate column 1",0.68
same,"Slope of linear regression, mean of single experiment","[1]; 0.1µM, replicate column 2",0.37
same,"Slope of linear regression, mean of single experiment","[1]; 0.1µM, replicate column 3",0.74
same,"Slope of linear regression, mean of single experiment","[1]; 0.1µM, replicate column 4",0.70
same,Slope of linear regression FtsZ vs FtsA,"[1]; 0.2 µM FtsA, mean",0.45
same,"Slope of linear regression, mean of single experiment","[1]; 0.2µM, replicate column 1",0.40
same,"Slope of linear regression, mean of single experiment","[1]; 0.2µM, replicate column 2",0.56
same,"Slope of linear regression, mean of single experiment","[1]; 0.2µM, replicate column 3",0.40
same,"Slope of linear regression, mean of single experiment","[1]; 0.4µM, replicate column 1",0.0747
same,"Slope of linear regression, mean of single experiment","[1]; 0.4µM, replicate column 2",0.0547
same,"Slope of linear regression, mean of single experiment","[1]; 0.4µM, replicate column 3",0.49
same,"Slope of linear regression, mean of single experiment","[1]; 0.4µM, replicate column 4",0.31
same,Slope of linear regression FtsZ vs FtsA,"[1]; 0.8 µM FtsA, mean",0.17
same,"Slope of linear regression, mean of single experiment","[1]; 0.8µM, replicate column 1",0.16
same,"Slope of linear regression, mean of single experiment","[1]; 0.8µM, replicate column 2",0.15
same,"Slope of linear regression, mean of single experiment","[1]; 0.8µM, replicate column 3",0.23
same,"Slope of linear regression, mean of single experiment","[1]; 0.8µM, replicate column 4",0.13
same,Slope of linear regression,"[1]; + FtsN, 0.10 µM, mean",0.81 a.u.
same,Slope of linear regression,"[1]; + FtsN, 0.10 µM, replicate 1",0.84 a.u.
same,Slope of linear regression,"[1]; + FtsN, 0.10 µM, replicate 2",0.82 a.u.
same,Slope of linear regression,"[1]; + FtsN, 0.10 µM, replicate 3",0.78 a.u.
same,Slope of linear regression,"[1]; + FtsN, 0.20 µM, mean",0.65 a.u.
same,Slope of linear regression,"[1]; + FtsN, 0.20 µM, replicate 1",0.62 a.u.
same,Slope of linear regression,"[1]; + FtsN, 0.20 µM, replicate 2",0.61 a.u.
same,Slope of linear regression,"[1]; + FtsN, 0.20 µM, replicate 3",0.72 a.u.
same,Slope of linear regression,"[1]; + FtsN, 0.40 µM, mean",0.35 a.u.
same,Slope of linear regression,"[1]; + FtsN, 0.40 µM, replicate 1",0.43 a.u.
same,Slope of linear regression,"[1]; + FtsN, 0.40 µM, replicate 2",0.47 a.u.
same,Slope of linear regression,"[1]; + FtsN, 0.40 µM, replicate 3",0.13 a.u.
same,Slope of linear regression,"[1]; without FtsN, 0.10 µM, mean",0.70 a.u.
same,Slope of linear regression,"[1]; without FtsN, 0.10 µM, replicate 1",0.52 a.u.
same,Slope of linear regression,"[1]; without FtsN, 0.10 µM, replicate 2",0.85 a.u.
same,Slope of linear regression,"[1]; without FtsN, 0.10 µM, replicate 3",0.71 a.u.
same,Slope of linear regression,"[1]; without FtsN, 0.20 µM, mean",0.59 a.u.
same,Slope of linear regression,"[1]; without FtsN, 0.20 µM, replicate 1",0.55 a.u.
same,Slope of linear regression,"[1]; without FtsN, 0.20 µM, replicate 2",0.56 a.u.
same,Slope of linear regression,"[1]; without FtsN, 0.20 µM, replicate 3",0.66 a.u.
same,Slope of linear regression,"[1]; without FtsN, 0.40 µM, mean",0.16 a.u.
same,Slope of linear regression,"[1]; without FtsN, 0.40 µM, replicate 1",0.24 a.u.
same,Slope of linear regression,"[1]; without FtsN, 0.40 µM, replicate 2",0.066 a.u.
same,Slope of linear regression,"[1]; without FtsN, 0.40 µM, replicate 3",0.18 a.u.
same,Single Molecule Diffusion Constant,"[2]; 0.1 µM FtsA, Exp. 1",0.1660 µm2/s
same,Single Molecule Diffusion Constant,"[2]; 0.1µM FtsA, Exp. 2",0.0799 µm2/s
same,Single Molecule Diffusion Constant,"[2]; 0.1 µM FtsA, Exp. 3",0.1610 µm2/s
same,Diffusion Coefficient,[2]; 0.1 µM FtsA,0.14 ± 0.04 µm^2/s
same,Single Molecule Diffusion Constant,"[2]; 0.2 µM FtsA, Exp. 1",0.0839 µm2/s
same,Single Molecule Diffusion Constant,"[2]; 0.2µM FtsA, Exp. 2",0.0498 µm2/s
same,Single Molecule Diffusion Constant,"[2]; 0.2 µM FtsA, Exp. 3",0.0248 µm2/s
same,"Single Molecule Diffusion Constant, mean",[2]; 0.2 µM FtsA,0.053 µm2/s and 0.0528 µm2/s
same,Single Molecule Diffusion Constant,"[2]; 0.4 µM FtsA, Exp. 1",0.0130 µm2/s
same,Single Molecule Diffusion Constant,"[2]; 0.4µM FtsA, Exp. 2",0.0096 µm2/s
same,Single Molecule Diffusion Constant,"[2]; 0.4 µM FtsA, Exp. 3",0.0225 µm2/s
same,"Single Molecule Diffusion Constant, mean",[2]; 0.4 µM FtsA,0.015 µm2/s and 0.0150 µm2/s
same,Single Molecule Diffusion Constant,"[2]; 0.8 µM FtsA, Exp. 1",0.0048 µm2/s
same,Single Molecule Diffusion Constant,"[2]; 0.8µM FtsA, Exp. 2",0.0025 µm2/s
same,Single Molecule Diffusion Constant,"[2]; 0.8 µM FtsA, Exp. 3",0.0035 µm2/s
same,Diffusion Coefficient,[2]; 0.8 µM FtsA,0.004 ± 0.001 µm^2/s
B1,Slope of linear regression FtsZ vs FtsA,"[1]; 0.1 µM FtsA, mean",0.43
same,"Slope of linear regression, mean of single experiment","[1]; 0.1µM, replicate column 1",0.46
same,"Slope of linear regression, mean of single experiment","[1]; 0.1µM, replicate column 2",0.49
same,"Slope of linear regression, mean of single experiment","[1]; 0.1µM, replicate column 3",0.39
same,Slope of linear regression FtsZ vs FtsA,"[1]; 0.2 µM FtsA, mean",0.60
same,"Slope of linear regression, mean of single experiment","[1]; 0.2µM, replicate column 1",0.53
same,"Slope of linear regression, mean of single experiment","[1]; 0.2µM, replicate column 2",0.81
same,"Slope of linear regression, mean of single experiment","[1]; 0.2µM, replicate column 3",0.58
same,"Slope of linear regression, mean of single experiment","[1]; 0.4µM, replicate column 1",0.63
same,Slope of linear regression FtsZ vs FtsA,"[1]; 0.8 µM FtsA, mean",0.72
same,Slope of linear regression FtsZ vs FtsA,"[1]; above 0.2 µM, remained constant",~ 0.7
same,Single Molecule Diffusion Constant,"[2]; 0.1 µM FtsA, Exp. 1",0.4979 µm2/s
same,Single Molecule Diffusion Constant,"[2]; 0.1µM FtsA, Exp. 2",0.3931 µm2/s
same,Single Molecule Diffusion Constant,"[2]; 0.1 µM FtsA, Exp. 3",0.3496 µm2/s
same,Diffusion Coefficient,[2]; 0.1 µM FtsA,0.42 ± 0.06 µm^2/s
same,Single Molecule Diffusion Constant,"[2]; 0.2 µM FtsA, Exp. 1",0.1893 µm2/s
same,Single Molecule Diffusion Constant,"[2]; 0.2µM FtsA, Exp. 2",0.1662 µm2/s
same,Single Molecule Diffusion Constant,"[2]; 0.2 µM FtsA, Exp. 3",0.2033 µm2/s
same,Single Molecule Diffusion Constant,"[2]; 0.4 µM FtsA, Exp. 1",0.1363 µm2/s
same,Single Molecule Diffusion Constant,"[2]; 0.4µM FtsA, Exp. 2",0.0718 µm2/s
same,Single Molecule Diffusion Constant,"[2]; 0.4 µM FtsA, Exp. 3",0.1951 µm2/s
same,Single Molecule Diffusion Constant,"[2]; 0.8 µM FtsA, Exp. 1",0.0600 µm2/s
same,Single Molecule Diffusion Constant,"[2]; 0.8µM FtsA, Exp. 2",0.0636 µm2/s
same,Single Molecule Diffusion Constant,"[2]; 0.8 µM FtsA, Exp. 3",0.0391 µm2/s
same,"Single Molecule Diffusion Constant, mean",[2]; 0.8 µM FtsA,0.054 µm2/s and 0.0542 µm2/s
same,Diffusion Coefficient,[2]; 0.8 µM FtsA,0.05 ± 0.01 µm^2/s

# Source: publication PMC9098913, “In vitro reconstitution of Escherichia coli divisome activation” (Nature Communications, 2022)
